Reference: patent US10800815B2, “Kv1.3 potassium channel antagonists” (cgtx-Peptide Development GmbH, priority 2014, dated 2020)
“Also recorded” adds a separate entry of the source.

Experiments:
antibody formation = assay type: in vivo, rat
Description: FIG. 27 Analysis of mBSA specific antibodies. In the experimental groups H and I all animals have produced antibodies against the antigen mBSA during the immunization and AIA induction period.
The remaining swelling in treated animals was assumed to be due to antibody/antigen reactions. Therefore, immunized as well as naïve animals were tested for the presence of mBSA specific antibodies. Antibodies against mBSA could be detected in all immunized animals of groups H and I seven days after arthritis induction (FIG. 27).

[1] = tested on: antigen induced arthritis (AIA); experiment: Antigen induced arthritis (AIA) rat model, knee joint swelling; assay type: in vivo; conditions: for effect on knee swelling, curative treatment: 1 mg/kg BW i.v. daily, start on day 0 or day 1, vs vehicle

CC[C@H](C)[C@H](NC(=O)[C@@H](N)[C@@H](C)O)C(=O)N[C@H](C(=O)N[C@@H](CC(N)=O)C(=O)N[C@H](C(=O)N[C@@H](CCCCN)C(=O)N[C@H]1CSSC[C@@H]2NC(=O)[C@H](CCCCN)NC(=O)CNC(=O)[C@H](Cc3ccc(O)cc3)NC(=O)[C@@H]3CCCN3C(=O)[C@@H]3CSSC[C@@H](C(=O)O)NC(=O)[C@H](CCCNC(=N)N)NC(=O)[C@H](CC(N)=O)NC(=O)[C@@H]4CSSC[C@H](NC(=O)[C@@H]5CCCN5C(=O)[C@@H]5CCCN5C(=O)[C@H](CC(C)C)NC(=O)[C@H](CSSC[C@H](NC(=O)[C@H](CCCCN)NC(=O)[C@H](CCCNC(=N)N)NC(=O)[C@H](CC(N)=O)NC(=O)[C@H](CCSC)NC2=O)C(=O)N[C@@H](CCCCN)C(=O)N4)NC(=O)[C@H](CCC(N)=O)NC(=O)[C@H](CCCCN)NC(=O)[C@@H]2CCCN2C(=O)[C@H](CO)NC(=O)[C@H]([C@@H](C)O)NC1=O)C(=O)N[C@@H](CCCCN)C(=O)N[C@@H](C)C(=O)N[C@@H](CCC(N)=O)C(=O)N[C@@H]([C@@H](C)O)C(=O)NCC(=O)N3)C(C)C)[C@@H](C)CC [Compound 7]
reactivity of immunized animals on cgtx-544(Mix) (anti-peptide antibodies) (antibody formation; after 10 days under peptide therapy): no reactivity
suppression of B-lymphocytes and antibody formation (mBSA specific antibodies) (antibody formation; seven days after arthritis induction): does not seem to suppress B-lymphocytes and antibody formation
relative difference of knee swelling (normalized) ([1]; 1 mg/kg 1× daily i.v. from day −3): 0.18±0.05
reduction of knee swelling relative to the vehicle control group ([1]; 1 mg/kg 1× daily i.v., 24 h after arthritis induction): 60%
effect on knee swelling after second single injection ([1]; 1 mg/kg BW i.v. 1×d1 and 1×d4, listed as cgtx-544): reduced again to a significant value; also recorded: statistically significant reduction in knee swelling
effect on knee swelling, curative treatment ([1]; listed as cgtx-544): statistically significant reduction in knee swelling
effect on knee swelling, curative treatment ([1]; listed as cgtx-544(Mix)): clear reducing, and statistically significant effect; also recorded: significant reduction in knee joint swelling
knee joint swelling versus untreated (excipient) controls ([1]; 1 mg/kg BW i.v. from day −3): clear reduction of the knee joint swelling
knee diameters after seven days of treatment, curative ([1]; 1 mg/kg i.v. daily, start day 0 or day 1): nearly comparable to the non-induced, intra-individual control knee
maximal reduction of knee swelling, curative treatment ([1]; 1 mg/kg i.v. daily, therapy started on day 0 immediately after arthritis induction): 40%
maximal reduction of knee swelling, curative treatment ([1]; 1 mg/kg i.v. daily, therapy started on day 1): 58%
effect on knee swelling, preventive treatment ([1]; 0.1, 1 and 5 mg/kg BW i.v. daily, day −3 to day 6, vs vehicle, listed as cgtx-544): clear reducing, dose dependent and statistically significant effect; also recorded: statistically significant reduction in knee swelling
knee diameters after seven days of treatment, preventive ([1]; daily i.v. from day −3): nearly comparable to the non-induced, intra-individual control knee
maximal reduction of knee swelling, preventive treatment ([1]; daily i.v. from day −3): 70%
effect on knee swelling after single injection ([1]; single i.v. injection 1 mg/kg BW on day 1 (1×d1), 24 h after application, listed as cgtx-544, 1 mg/kg): clear and statistically significant reduction of knee swelling; also recorded: statistically significant reduction in knee swelling; also recorded: strong and sustained effect
